Experimental data reported in ChEMBL document CHEMBL1909582, “Identification of novel NK1/NK3 dual antagonists for the potential treatment of schizophrenia” (Bioorg Med Chem Lett, 2011).

Tests used:
Neuromedin-K receptor = target: T1, Neuromedin-K receptor (Homo sapiens, UniProt P29371); assay: Antagonist activity at human recombinant NK3 receptor expressed in human U20S cells assessed as effect on NKB-induced intracellular calcium level by FLIPR assay; assay type: functional, cell-based, U2OS
T1 sequence (P29371 whole entry): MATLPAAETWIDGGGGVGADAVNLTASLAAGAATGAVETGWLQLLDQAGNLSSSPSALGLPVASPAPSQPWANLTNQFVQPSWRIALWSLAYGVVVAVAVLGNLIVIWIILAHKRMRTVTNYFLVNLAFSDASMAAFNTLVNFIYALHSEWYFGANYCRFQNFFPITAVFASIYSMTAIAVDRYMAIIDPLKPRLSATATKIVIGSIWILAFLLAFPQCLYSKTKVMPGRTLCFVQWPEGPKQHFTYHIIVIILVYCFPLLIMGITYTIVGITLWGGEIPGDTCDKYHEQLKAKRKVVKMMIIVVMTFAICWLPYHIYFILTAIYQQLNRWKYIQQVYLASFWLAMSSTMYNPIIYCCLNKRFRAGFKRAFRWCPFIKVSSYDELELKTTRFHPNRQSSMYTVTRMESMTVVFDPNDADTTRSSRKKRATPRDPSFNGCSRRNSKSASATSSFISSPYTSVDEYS

Substance-P receptor [1] = target: T2, Substance-P receptor (Homo sapiens, UniProt P25103); assay: Antagonist activity at human recombinant NK1 receptor expressed in human U20S cells assessed as effect on substance P-induced intracellular calcium level by FLIPR assay; assay type: functional, cell-based, U2OS
T2 sequence (P25103 whole entry): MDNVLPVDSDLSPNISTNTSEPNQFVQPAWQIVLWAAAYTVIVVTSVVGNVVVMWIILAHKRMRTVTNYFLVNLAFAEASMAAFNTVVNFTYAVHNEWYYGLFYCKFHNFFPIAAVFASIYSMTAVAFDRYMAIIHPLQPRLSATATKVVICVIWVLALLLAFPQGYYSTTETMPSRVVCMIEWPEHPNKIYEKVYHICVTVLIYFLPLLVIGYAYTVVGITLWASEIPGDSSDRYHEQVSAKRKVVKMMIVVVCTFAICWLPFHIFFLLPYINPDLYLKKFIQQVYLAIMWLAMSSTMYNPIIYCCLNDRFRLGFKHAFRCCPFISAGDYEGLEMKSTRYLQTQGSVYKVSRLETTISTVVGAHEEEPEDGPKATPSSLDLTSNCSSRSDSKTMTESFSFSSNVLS

[2] = target: T3, Neuromedin-K receptor (Homo sapiens) (UniProt P29371); assay: Antagonist activity at human recombinant NK3 receptor expressed in human U20S cells assessed as neurokinin B maximal stimulation at 30 nM by FLIPR assay; conditions: U2OS
T3 sequence (whole entry): T1 sequence (P29371 whole entry)

[3] = target: T3, Neuromedin-K receptor (Homo sapiens); assay: Antagonist activity at human recombinant NK3 receptor expressed in human U20S cells assessed as neurokinin B maximal stimulation at 100 nM by FLIPR assay; conditions: U2OS
Substance-P receptor [4] = target: T2, Substance-P receptor; assay: Antagonist activity at human recombinant NK1 receptor expressed in human U20S cells assessed as substance P maximal stimulation at 1 nM by FLIPR assay; assay type: functional, cell-based; conditions: U2OS
Substance-P receptor [5] = target: T2, Substance-P receptor; assay: Antagonist activity at human recombinant NK1 receptor expressed in human U20S cells assessed as substance P maximal stimulation at 3 nM by FLIPR assay; assay type: functional, cell-based; conditions: U2OS

Ki (Neuromedin-K receptor) [nM] | Ki (Substance-P receptor [1]) [nM] | Emax [2] [%] | Emax [3] [%] | Emax (Substance-P receptor [4]) [%] | Emax (Substance-P receptor [5]) [%] | SMILES
501 | 0.501 |  |  |  |  | Cc1cc(F)ccc1-c1cc(C2NC(=O)CC2CO)ncc1N(C)C(=O)C(C)(C)c1cc(C(F)(F)F)cc(C(F)(F)F)c1 (single isomer, unassigned; 8b)
31.6 | < 0.158 |  |  | 64 | 20 | Cc1cc(F)ccc1-c1cc(C2CNC(=O)C2)ncc1N(C)C(=O)C(C)(C)c1cc(C(F)(F)F)cc(C(F)(F)F)c1 (stereo not drawn)
79.4 | 0.0501 |  |  |  |  | Cc1cc(F)ccc1-c1cc(C2CNC(=O)C2CO)ncc1N(C)C(=O)C(C)(C)c1cc(C(F)(F)F)cc(C(F)(F)F)c1 (single isomer, unassigned; enantiomer 1) [listing 1 of 2 here]
794 | < 0.158 |  |  |  |  | Cc1cc(F)ccc1-c1cc(C2CC(=O)NC2CO)ncc1N(C)C(=O)C(C)(C)c1cc(C(F)(F)F)cc(C(F)(F)F)c1 (single isomer, unassigned; 21b)
6.31 | < 0.158 |  |  |  |  | Cc1cc(F)ccc1-c1cc(C2CC(=O)NC2(CO)CO)ncc1N(C)C(=O)C(C)(C)c1cc(C(F)(F)F)cc(C(F)(F)F)c1 (single isomer, unassigned; enantiomer 1)
5.01 | 0.251 |  |  |  |  | Cc1cc(F)ccc1-c1cc(C2NC(=O)CC2CO)ncc1N(C)C(=O)C(C)(C)c1cc(C(F)(F)F)cc(C(F)(F)F)c1 (single isomer, unassigned; 9a) [listing 2 of 2 here]
 |  |  |  | 101 | 37 | Cc1cc(F)ccc1-c1cc(C2CNC(=O)C2CO)ncc1N(C)C(=O)C(C)(C)c1cc(C(F)(F)F)cc(C(F)(F)F)c1 (single isomer, unassigned; enantiomer 2) [listing 1 of 2 here]
1.58 | 0.158 |  |  |  |  | Cc1cc(F)ccc1-c1cc(C2CNC(=O)C2CO)ncc1N(C)C(=O)C(C)(C)c1cc(C(F)(F)F)cc(C(F)(F)F)c1 (single isomer, unassigned; enantiomer 2) [listing 2 of 2 here]
 |  |  |  | 103 | 19 | Cc1cc(F)ccc1-c1cc(C2CNC(=O)C2CO)ncc1N(C)C(=O)C(C)(C)c1cc(C(F)(F)F)cc(C(F)(F)F)c1 (single isomer, unassigned; enantiomer 1) [listing 2 of 2 here]
1 | 0.0631 | 67 | 56 | 66 | 5 | Cc1cc(F)ccc1-c1cc(C2CN(C)C(=O)C2CO)ncc1N(C)C(=O)C(C)(C)c1cc(C(F)(F)F)cc(C(F)(F)F)c1 (single isomer, unassigned)
 |  |  |  | 89 | 28 | Cc1cc(F)ccc1-c1cc(C2CC(=O)NC2(CO)CO)ncc1N(C)C(=O)C(C)(C)c1cc(C(F)(F)F)cc(C(F)(F)F)c1 (racemic) [listing 2 of 2 here]

More lines, now with the values behind:

SMILES | Ki (Neuromedin-K receptor) [nM] | Ki (Substance-P receptor [1]) [nM] | Emax [2] [%] | Emax [3] [%] | Emax (Substance-P receptor [4]) [%] | Emax (Substance-P receptor [5]) [%]
Cc1cc(F)ccc1-c1cc(C2NC(=O)CC2CO)ncc1N(C)C(=O)C(C)(C)c1cc(C(F)(F)F)cc(C(F)(F)F)c1 (single isomer, unassigned; 9b) [listing 1 of 2 here] | 31.6 | 0.316 |  |  |  | 
Cc1cc(F)ccc1-c1cc(C2NC(=O)CC2CO)ncc1N(C)C(=O)C(C)(C)c1cc(C(F)(F)F)cc(C(F)(F)F)c1 (single isomer, unassigned; 9a) [listing 1 of 2 here] |  |  | 83 | 74 | 98 | 60
Cc1cc(F)ccc1-c1cc(C2CC(=O)NC2(CO)CO)ncc1N(C)C(=O)C(C)(C)c1cc(C(F)(F)F)cc(C(F)(F)F)c1 (racemic) [listing 1 of 2 here] | 5.01 | 0.1 |  |  |  | 
Cc1cc(F)ccc1-c1cc(C2CC(=O)NC2CO)ncc1N(C)C(=O)C(C)(C)c1cc(C(F)(F)F)cc(C(F)(F)F)c1 (single isomer, unassigned; 22a) [listing 1 of 2 here] |  |  | 101 | 76 | 103 | 39
Cc1cc(F)ccc1-c1cc(C2CC(=O)NC2CO)ncc1N(C)C(=O)C(C)(C)c1cc(C(F)(F)F)cc(C(F)(F)F)c1 (single isomer, unassigned; 22b) | 20 | 0.251 |  |  |  | 
Cc1cc(F)ccc1-c1cc(C2NC(=O)CC2CO)ncc1N(C)C(=O)C(C)(C)c1cc(C(F)(F)F)cc(C(F)(F)F)c1 (single isomer, unassigned; 8a) [listing 1 of 2 here] |  |  |  |  | 64 | 25
Cc1cc(F)ccc1-c1cc(C2CNC(=O)C2CO)ncc1N(C)C(=O)C(C)(C)c1cc(C(F)(F)F)cc(C(F)(F)F)c1 (racemic) [listing 1 of 2 here] |  |  |  |  | 109 | 63
Cc1cc(F)ccc1-c1cc(C2CC(=O)NC2CO)ncc1N(C)C(=O)C(C)(C)c1cc(C(F)(F)F)cc(C(F)(F)F)c1 (single isomer, unassigned; 22a) [listing 2 of 2 here] | 2 | 0.251 |  |  |  | 
Cc1cc(F)ccc1-c1cc(C2CNC(=O)C2CO)ncc1N(C)C(=O)C(C)(C)c1cc(C(F)(F)F)cc(C(F)(F)F)c1 (racemic) [listing 2 of 2 here] | 7.94 | 0.251 |  |  |  | 
Cc1cc(F)ccc1-c1cc(C2NC(=O)CC2CO)ncc1N(C)C(=O)C(C)(C)c1cc(C(F)(F)F)cc(C(F)(F)F)c1 (single isomer, unassigned; 9b) [listing 2 of 2 here] |  |  |  |  | 79 | 30
Cc1cc(F)ccc1-c1cc(C2CC(=O)NC2(CO)CO)ncc1N(C)C(=O)C(C)(C)c1cc(C(F)(F)F)cc(C(F)(F)F)c1 (single isomer, unassigned; enantiomer 2) | 631 | < 0.158 |  |  |  | 
Cc1cc(F)ccc1-c1cc(C2NC(=O)CC2CO)ncc1N(C)C(=O)C(C)(C)c1cc(C(F)(F)F)cc(C(F)(F)F)c1 (single isomer, unassigned; 8a) [listing 2 of 2 here] | 39.8 | 0.0794 |  |  |  | 
Cc1cc(F)ccc1-c1cc(C2CC(=O)NC2CO)ncc1N(C)C(=O)C(C)(C)c1cc(C(F)(F)F)cc(C(F)(F)F)c1 (single isomer, unassigned; 21a) | 25.1 | < 0.158 |  |  |  | 
